# Assay results published in ChEMBL document CHEMBL1142413.
# What was measured:
# Homo sapiens [1] = organism: Homo sapiens; assay: Ratio of IC50 for human CB1R F200L mutant to IC50 for human wild type CB1R
# Homo sapiens [2] = organism: Homo sapiens; assay: Ratio of IC50 for human CB1R S383A mutant to IC50 for human wild type CB1R
# Homo sapiens [3] = organism: Homo sapiens; assay: Ratio of IC50 for human CB1R W279A mutant to IC50 for human wild type CB1R
# Homo sapiens [4] = organism: Homo sapiens; assay: Ratio of IC50 for human CB1R K192L mutant to IC50 for human wild type CB1R
compound,measurement,setting,value
Cc1c(C(=O)NN2CCCCC2)nn(-c2ccc(Cl)cc2Cl)c1-c1ccc(Cl)cc1,Fold change,Homo sapiens [1],3
same,Fold change,Homo sapiens [2],< 2
same,Fold change,Homo sapiens [3],> 1000
same,Fold change,Homo sapiens [4],17
